We go through twelve molecules from PubChem BioAssay (NCI).

The GI50 is the concentration at which growth is held to half of that of the control. The TGI is the concentration giving total growth inhibition. High values mean lower sensitivity of the cells, low ones greater sensitivity of the cells.

Common to all, as to test: DTP human tumour cell line panel, 48 h
Assay [1] deals with 786-0 renal.
The test system of assay [2] is A498 renal.
Assay [3] concerns A549 NSCLC.
For assay [4], the system named is CAKI-1 renal.
Assay [5] deals with COLO 205 colon.
For assay [6], the system named is HCT-15 colon.
In assay [7] the test system is MALME-3M melanoma.
The subject of assay [8] is RXF 393 renal.
For assay [9], the system named is OVCAR-5 ovarian.
Assay [10] has as its system PC-3 prostate.

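96-well plates; 48 h exposure; 5 concentrations. Endpoints by linear interpolation between flanking doses. Not reached: highest tested concentration assigned. Here, GI50 denotes the concentration required for 50% inhibition of growth. TGI: total growth inhibition.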

As to `CCOC(=O)c1c2c(n(CC(C)C)c1C)-c1nc[nH]c1C(=O)C2=O`, the GI50 in [1] was 19.2 µM; in [2], 15.6 µM; in assay [3] it was 14.9 µM; in assay [4], 17.7 µM; in assay [5], 18 µM; in assay [6], 14.7 µM. Further, the figures for the GI50 in [7] and in assay [8] were 21.1 µM and 13.9 µM, respectively. Besides, the total growth inhibition concentration (TGI) worked out at 33.3 µM in assay [1]; 29 µM in assay [2]; 28.1 µM in [3]; 57.8 µM in assay [4]; 32.3 µM in assay [5]; 27.9 µM in [6]. Also, the concentration for total growth inhibition (TGI) stood at 36.6 µM in assay [7] and 26.8 µM in [8].
As for `Nc1cc(=O)[nH]c(SC2=NC(N)CC(O)C2)n1` (stereo not given), the TGI in [1], in assay [4], in assay [5], in assay [6], in [7] and in assay [9] was more than 100 µM in each case.
On to `CCCC(O)[C@@H](O)c1ccc2c(c1O)C(=O)c1c(OC)cccc1C2=O` (stereo not given in full), for which the concentration for total growth inhibition (TGI) was more than 100 µM in assay [1]; more than 100 µM in assay [2]; more than 100 µM in assay [3]; more than 100 µM in assay [4]; 44.8 µM in assay [5]; 82.5 µM in assay [6]. Moreover, the TGI is 90.3 µM in assay [7] and more than 100 µM in assay [9].
Take `COC(=O)CCC(=O)N1Cc2cc(C)ccc2N(C(=O)CCC(=O)OC)Cc2cc(C)ccc21`: the total growth inhibition concentration (TGI) in assay [1], in assay [3], in assay [4], in assay [5], in assay [6] and in assay [9] was more than 100 µM throughout. The same molecule returned a total growth inhibition concentration (TGI) in assay [8] of more than 100 µM.
Take `CCOP(=O)(OCC)C1CCCCOC1=O` (stereo not given): the total growth inhibition concentration (TGI) in assay [1], in [2], in [3], in assay [4], in [5] and in assay [6] was more than 100 µM each time. Further, the TGI in [7] and in [8] was more than 100 µM each time.
In the case of `C[C@]12CC[C@H]3[C@@H](CCC4=CC(=O)CC[C@@H]43)[C@@H]1CC[C@@H]2OC(=O)N(CCCl)N=O`, the GI50 is 0.0723 µM in [1]; 1.9 µM in [2]; 0.393 µM in assay [3]; 0.51 µM in assay [4]; 3.1 µM in assay [5]; 8.45 µM in [6]. The GI50 in assay [7] was 11.3 µM; in assay [9], 20.8 µM; in [10] it was 5.02 µM. The TGI was determined as 4.82 µM in assay [1]; 5.51 µM in assay [2]; 14.8 µM in assay [3]; 27.6 µM in assay [4]; 20 µM in assay [5]; 31.3 µM in assay [6]. The TGI in assay [7] was 28.9 µM; in assay [9] it was 49.9 µM; in assay [10], more than 48.1 µM.
In the case of `CCC[CH2][Sn]([CH2]CCC)([O]C(C)=O)[O]C(C)=O`, the GI50 is 1.48 µM in assay [1]; 3.65 µM in assay [3]; 0.638 µM in [4]; 1.81 µM in assay [5]; 1.43 µM in assay [6]; 0.994 µM in [7]. Also, the GI50 was 1.23 µM in [9] and 0.195 µM in [8]. The TGI in [1] stood at 2.83 µM; in [3] it was 15.3 µM; in assay [4], 2.23 µM; in [5], 4.29 µM; in assay [6] it was 3.14 µM; in [7], 2.36 µM. Besides, the concentration for total growth inhibition (TGI) in assay [9] was found to be 2.71 µM; in assay [8] it was 0.654 µM.
In the case of `O=C1C(Cl)=C(N/N=c2/[nH][nH]/c(=N/NC3=C(Cl)C(=O)c4ccccc4C3=O)c3ccccc23)C(=O)c2ccccc21`, the GI50 in [1] was 17.4 µM; in [2], 11.5 µM; in assay [3], 21.9 µM; in [4] it was 17.7 µM; in assay [5], 16.1 µM; in assay [6], 19.8 µM. Besides, the GI50 in [9] was 18.7 µM; in assay [10], 8.64 µM. Besides, the TGI in assay [1] was 32.3 µM; in assay [2], 24 µM; in assay [3] it was 52.2 µM; in assay [4] it was 41.4 µM; in [5] it was 32.9 µM; in assay [6], more than 100 µM. Besides, the total growth inhibition concentration (TGI) in [9] amounted to 39.1 µM; in assay [10], 28.7 µM.
As to `C=C1C(=O)OC2CC3(C)C=CC(=O)C(=C)C3CC12` (stereo not given), the TGI in assay [1] is 3.36 µM; in assay [2] it was 19.5 µM; in assay [3] it was 20.4 µM; in [4], 2.77 µM; in [5], 3.05 µM; in [6], 4.09 µM. Besides, the TGI in assay [7] amounted to 4.02 µM; in assay [9] it was 8.05 µM; in assay [8] it was 4.46 µM.
With `COc1ccccc1[N-]C(C1=C([O-])c2ccccc2C1=O)c1ccccc1.COc1ccccc1[N-]C(C1=C([O-])c2ccccc2C1=O)c1ccccc1.[Cu+2]` (stereo not given), the GI50 was 7.76 µM in [1]; 14.7 µM in [2]; 4.63 µM in assay [3]; 12.7 µM in assay [4]; 3.95 µM in [5]; 6.51 µM in assay [6]. In addition, the GI50 in assay [7] was 6.85 µM. Also, the concentration for total growth inhibition (TGI) is more than 100 µM in assay [1]; 53.7 µM in assay [2]; 52.9 µM in assay [3]; 54.5 µM in assay [4]; 30 µM in assay [5]; more than 100 µM in assay [6]. Besides, the TGI in assay [7] is more than 100 µM.
Regarding `O=C(NCCCCCCNC(=O)c1cccc2ccccc12)c1cccc2ccccc12`, the TGI in assay [1] is 80.7 µM; in assay [2], 65.6 µM; in assay [3], more than 100 µM; in assay [4] it was 66.3 µM; in assay [5], 3.4 µM; in [6] it was more than 100 µM. The TGI in assay [7] is more than 100 µM; in assay [9] it was more than 100 µM; in assay [8], 23.8 µM.
For `O=C(CC1Sc2ccccc2NC1=O)Nc1cc(Cl)ccc1Cl` (stereo not given), the total growth inhibition concentration (TGI) in [1], in [2], in assay [3], in [4], in assay [6] and in assay [7] was more than 100 µM in each case. The total growth inhibition concentration (TGI) in assay [9] and in assay [8] was more than 100 µM in each case.
